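96-well plates; 48 h exposure; 5 concentrations. Endpoints by linear interpolation between flanking doses. Not reached: highest tested concentration assigned. Abbreviation: GI50, concentration required for 50% inhibition of growth.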 Activity calls are given as the source filed them. Rule as the data show it: active = GI50 up to about 1.1 µM and inactive = higher.
Assays:
Assay in all cases: DTP human tumour cell line panel, 48 h
HCC 2998 = test system: HCC 2998
HCT-116 = test system: HCT-116
HL-60 = test system: HL-60
HOP-62 = test system: HOP-62
HOP-92 = test system: HOP-92
HT-29 = test system: HT-29
K562 = test system: K562
M14 = test system: M14
NCI-H23 = test system: NCI-H23
NCI-H460 = test system: NCI-H460
OVCAR-4 = test system: OVCAR-4
OVCAR-8 = test system: OVCAR-8
RPMI-8226 = test system: RPMI-8226
SF-295 = test system: SF-295
SK-MEL-5 = test system: SK-MEL-5
SNB-75 = test system: SNB-75
U-251 = test system: U-251
MDA-N = test system: MDA-N
PC-3 = test system: PC-3
MCF7 = test system: MCF7

| Structure (SMILES) | GI50 (HCC 2998) | GI50 (HCT-116) | GI50 (HL-60) | GI50 (HOP-62) | GI50 (HOP-92) | GI50 (HT-29) | GI50 (K562) | GI50 (M14) | GI50 (NCI-H23) | GI50 (NCI-H460) | GI50 (OVCAR-4) | GI50 (OVCAR-8) | GI50 (RPMI-8226) | GI50 (SF-295) | GI50 (SK-MEL-5) | GI50 (SNB-75) | GI50 (U-251) | GI50 (MDA-N) | GI50 (PC-3) | GI50 (MCF7) |
| --- | --- | --- | --- | --- | --- | --- | --- | --- | --- | --- | --- | --- | --- | --- | --- | --- | --- | --- | --- | --- |
| NC(=O)N/N=C(\Cc1nc2ccc(C(=O)c3ccccc3)cc2nc1O)C(=O)Nc1ccc(Br)cc1 | > 100 µM (inactive) | > 100 µM (inactive) | > 100 µM (inactive) | > 100 µM (inactive) | > 100 µM (inactive) | > 100 µM (inactive) | > 100 µM (inactive) | > 100 µM (inactive) | > 100 µM (inactive) | > 100 µM (inactive) | > 100 µM (inactive) | > 100 µM (inactive) | > 100 µM (inactive) | > 100 µM (inactive) | > 100 µM (inactive) | > 100 µM (inactive) | > 100 µM (inactive) | – | – | – |
| Oc1ccc2ccccc2c1/N=N/c1ccc(/N=N/c2ccccc2)cc1 | – | 93.1 µM (inactive) | 0.43 µM (active) | > 100 µM (inactive) | – | > 100 µM (inactive) | > 100 µM (inactive) | > 100 µM (inactive) | > 100 µM (inactive) | – | > 100 µM (inactive) | > 100 µM (inactive) | > 100 µM (inactive) | > 100 µM (inactive) | > 100 µM (inactive) | 70.1 µM (inactive) | 46.3 µM (inactive) | 50 µM (inactive) | > 100 µM (inactive) | – |
| CC(C)c1cc(C(C)C)c(Cl)c(Cl)c1O.CC(C)c1cc(Cl)c(O)c(C(C)C)c1Cl | 28.8 µM (inactive) | 76.7 µM (inactive) | 18.3 µM (inactive) | 32.7 µM (inactive) | 10.5 µM (inactive) | 24 µM (inactive) | 16.9 µM (inactive) | 71.8 µM (inactive) | 39.2 µM (inactive) | 30 µM (inactive) | – | 26.7 µM (inactive) | 20.4 µM (inactive) | 18.7 µM (inactive) | 0.063 µM (active) | – | 34.7 µM (inactive) | – | 19.5 µM (inactive) | 23.7 µM (inactive) |
| Cc1n(CC(C)C)c2c([n+]1C)C(=O)c1ccccc1C2=O | 0.108 µM (active) | 0.0494 µM (active) | 0.0405 µM (active) | 0.131 µM (active) | 0.641 µM (active) | 0.0241 µM (active) | 0.431 µM (active) | 0.27 µM (active) | 0.0374 µM (active) | 0.135 µM (active) | 0.0594 µM (active) | 0.0265 µM (active) | 0.0628 µM (active) | 0.415 µM (active) | 0.0473 µM (active) | 0.416 µM (active) | 0.0588 µM (active) | 0.166 µM (active) | 0.0348 µM (active) | – |
| Cc1c(-c2coc(-c3ccccc3)n2)c(=O)n(-c2ccccc2)n1C | 0.1 µM (active) | > 100 µM (inactive) | 76.7 µM (inactive) | > 100 µM (inactive) | > 100 µM (inactive) | 57.7 µM (inactive) | – | > 100 µM (inactive) | > 100 µM (inactive) | > 100 µM (inactive) | > 100 µM (inactive) | 44.6 µM (inactive) | 36.5 µM (inactive) | > 100 µM (inactive) | 25.2 µM (inactive) | > 100 µM (inactive) | > 100 µM (inactive) | – | – | – |
| CCOC(=O)c1cc2c(nc1N)-c1ncccc1CC2 | > 100 µM (inactive) | 44.3 µM (inactive) | 28.1 µM (inactive) | 83.8 µM (inactive) | > 100 µM (inactive) | 16.4 µM (inactive) | 27 µM (inactive) | > 100 µM (inactive) | 37.2 µM (inactive) | 77.1 µM (inactive) | > 100 µM (inactive) | 83.6 µM (inactive) | 22.6 µM (inactive) | 54.5 µM (inactive) | 38.9 µM (inactive) | > 100 µM (inactive) | 43.8 µM (inactive) | – | – | – |
| Cc1cc2c(=O)n(-c3ccc(F)cc3)c(C)nc2c(C(=O)O)c1C | > 100 µM (inactive) | > 100 µM (inactive) | > 100 µM (inactive) | > 100 µM (inactive) | > 100 µM (inactive) | > 100 µM (inactive) | > 100 µM (inactive) | > 100 µM (inactive) | > 100 µM (inactive) | > 100 µM (inactive) | > 100 µM (inactive) | > 100 µM (inactive) | > 100 µM (inactive) | > 100 µM (inactive) | > 100 µM (inactive) | > 100 µM (inactive) | > 100 µM (inactive) | – | – | – |
| c1csc(-c2nn3c(C45CC6CC(CC(C6)C4)C5)nnc3s2)c1 | > 100 µM (inactive) | > 100 µM (inactive) | > 100 µM (inactive) | > 100 µM (inactive) | > 100 µM (inactive) | > 100 µM (inactive) | > 100 µM (inactive) | > 100 µM (inactive) | > 100 µM (inactive) | > 100 µM (inactive) | > 100 µM (inactive) | > 100 µM (inactive) | > 100 µM (inactive) | > 100 µM (inactive) | 93.3 µM (inactive) | > 100 µM (inactive) | > 100 µM (inactive) | > 100 µM (inactive) | > 100 µM (inactive) | – |
| Cc1ccc(S(=O)(=O)NC(=O)Nc2ccc(C(=O)O)c(O)c2)cc1 | > 100 µM (inactive) | > 100 µM (inactive) | > 100 µM (inactive) | > 100 µM (inactive) | > 100 µM (inactive) | > 100 µM (inactive) | > 100 µM (inactive) | > 100 µM (inactive) | > 100 µM (inactive) | > 100 µM (inactive) | > 100 µM (inactive) | > 100 µM (inactive) | > 100 µM (inactive) | > 100 µM (inactive) | > 100 µM (inactive) | > 100 µM (inactive) | > 100 µM (inactive) | – | > 100 µM (inactive) | > 100 µM (inactive) |
| CC1CCC(=O)NCCCCC(=O)N1 (stereo not drawn) | > 100 µM (inactive) | > 100 µM (inactive) | > 100 µM (inactive) | > 100 µM (inactive) | > 100 µM (inactive) | > 100 µM (inactive) | > 100 µM (inactive) | > 100 µM (inactive) | > 100 µM (inactive) | > 100 µM (inactive) | > 100 µM (inactive) | > 100 µM (inactive) | > 100 µM (inactive) | > 100 µM (inactive) | > 100 µM (inactive) | 43.3 µM (inactive) | > 100 µM (inactive) | – | – | – |
| NNC(=O)C(=O)N/N=C(\CCCC(=O)Nc1ccc(Cl)cc1)CC(=O)c1ccc(F)cc1 | > 100 µM (inactive) | > 100 µM (inactive) | > 100 µM (inactive) | > 100 µM (inactive) | > 100 µM (inactive) | 83.2 µM (inactive) | – | 51.3 µM (inactive) | > 100 µM (inactive) | > 100 µM (inactive) | > 100 µM (inactive) | > 100 µM (inactive) | 36.1 µM (inactive) | > 100 µM (inactive) | > 100 µM (inactive) | > 100 µM (inactive) | > 100 µM (inactive) | – | – | – |
| Cc1cc(C)nc(NC(=S)Nc2ccc([N+](=O)[O-])cc2)c1 | > 100 µM (inactive) | > 100 µM (inactive) | > 100 µM (inactive) | > 100 µM (inactive) | > 100 µM (inactive) | > 100 µM (inactive) | 45.2 µM (inactive) | – | > 100 µM (inactive) | > 100 µM (inactive) | > 100 µM (inactive) | > 100 µM (inactive) | > 100 µM (inactive) | – | > 100 µM (inactive) | > 100 µM (inactive) | > 100 µM (inactive) | – | > 100 µM (inactive) | > 100 µM (inactive) |
| CN1CCCNCCN(CCc2ccccn2)CCCN(C)CC1 | > 100 µM (inactive) | > 66.2 µM (inactive) | > 48.8 µM (inactive) | > 100 µM (inactive) | > 100 µM (inactive) | > 100 µM (inactive) | > 44.9 µM (inactive) | > 95.7 µM (inactive) | > 100 µM (inactive) | > 67.3 µM (inactive) | > 58.5 µM (inactive) | > 100 µM (inactive) | > 52.8 µM (inactive) | > 100 µM (inactive) | > 100 µM (inactive) | > 100 µM (inactive) | > 94.6 µM (inactive) | – | – | – |
| CCN(CCCl)CCNc1c2ccccc2nc2ccc(OC)cc12 | 0.847 µM (active) | 0.236 µM (active) | 0.199 µM (active) | 1.12 µM (active) | 0.822 µM (active) | 0.267 µM (active) | 0.213 µM (active) | 1.18 µM (inactive) | 0.514 µM (active) | 0.273 µM (active) | 0.794 µM (active) | 0.263 µM (active) | 0.0977 µM (active) | 0.766 µM (active) | 1.12 µM (active) | 0.966 µM (active) | 0.906 µM (active) | – | – | 0.378 µM (active) |
| COc1ccc2nc3c(c(N)c2c1)C1CCC3C1(C)C (stereo not drawn) | 17.5 µM (inactive) | 32.4 µM (inactive) | 18.5 µM (inactive) | 16 µM (inactive) | 16.4 µM (inactive) | 23.8 µM (inactive) | 41.7 µM (inactive) | 17.8 µM (inactive) | 54.8 µM (inactive) | 31.2 µM (inactive) | 47.6 µM (inactive) | 71.1 µM (inactive) | 23.5 µM (inactive) | 20.6 µM (inactive) | 12.5 µM (inactive) | 29.6 µM (inactive) | 38.5 µM (inactive) | – | 24.3 µM (inactive) | 24 µM (inactive) |
| COC(=O)CCC(=O)Nc1cc(C)ccc1C | > 100 µM (inactive) | > 100 µM (inactive) | > 100 µM (inactive) | > 100 µM (inactive) | > 100 µM (inactive) | > 100 µM (inactive) | > 100 µM (inactive) | > 100 µM (inactive) | > 100 µM (inactive) | > 100 µM (inactive) | > 100 µM (inactive) | > 100 µM (inactive) | > 100 µM (inactive) | > 100 µM (inactive) | > 100 µM (inactive) | > 100 µM (inactive) | > 100 µM (inactive) | – | – | – |

Reference: ChEMBL document CHEMBL1201862, “PubChem BioAssay data set” (2004)
